Data set [1] concerns SCH 23390 Induced Catalepsy. As to the kind of experiment: SCH 23390 (dopamine D1 antagonist) induced catalepsy, bar method. It counts as in vivo. The settings on record: rats; carrier pretreatment, 24 h later SCH23390 0.5 mg/kg. Here is the method:
Rats were pretreated with 0.4 mg/kg TOFA or with carrier (S.C.). Twenty-four hours later, the rats were challenged with 0.5 mg/kg SCH23390, a Dopamine D1 antagonist, and the duration of catalepsy was monitored.
Catalepsy was determined by a modification of the Bar method (Undie and Friedman, 1988). A steel bar, 1.1 cm in diameter and 50 cm long, was suspended at a height of 10 cm above the working surface. Three sides of the bench around the bar were walled off with brown cardboard, and the linings on the bench surface were selected to be of the same color with the cardboard walls. The animal's hind limbs were freely placed on the bench, the tail laid out to the back, and the forelimbs placed over the bar. The length of time a rat stayed up on the bar was noted up to a preset cut-off point of 120 s. The time was counted off upon observing any of the following actions: (1) the animal came off, placing its two forepaws on the bench, (2) the animal climbed onto or over the bar with both hind limbs, (3) the animal initiated locomotion along or around the bar. Subsequently, time readings were translated into scores by awarding a score of 1 for each successfully completed 5 s on the bar. […]
Catalepsy scores were analyzed by computer in accordance with the statistical procedures outlined by Winer, B. J.: Statistical principles in experimental design. […]

The subject of a further data set is GR/NER. Briefly: Ligand dependent transcription assay, GR/NER chimeric receptor with MMTV-luciferase reporter in CV1 cells. It counts as cell-based, African green monkey. The settings on record: for Fold of Stimulation GR/NER, Control: no dopamine. A general note: Reporter assays use an easily measured gene product as a stand-in for the process of interest.
Data set [2] deals with GR/PPAR. Briefly: Ligand dependent transcription assay, GR/PPAR chimeric receptor with MMTV-luciferase reporter in COS cells. It counts as cell-based, African green monkey. To be noted: Table 1.
A further data set concerns GR/NUC. As to the kind of experiment: Ligand dependent transcription assay, GR/NUC chimeric receptor with MMTV-luciferase reporter. It counts as cell-based, human. To be noted: Table 1. Here is the method: (§1) Similar hybrid receptors GR/NER, GR/NUC and GR/PPAR, in identical expression plasmid backgrounds were prepared essentially as described for the construction of the GR/mPPAR and GR/NUC chimeric receptors in Schmidt et al., "Identification of a new member of the steroid hormone receptor superfamily that is activated by a peroxisome proliferator and fatty acids," Mol. Endocrinol., 6(10):1634-41, 1992, and in Boie et al., "Enantioselective activation of the peroxisome proliferator-activated receptor", J. Biol. Chem. 269(8):5530-4, 1993.
(§2) Briefly, the amino terminal portion of the mouse glucocorticoid receptor (mGR), that includes the DNA binding domain was fused to the putative ligand binding domains of the nuclear receptor NER, hNUC-I (Schmidt et al., 1992), mPPAR (Issenmann and Green, 1990) to form the respective chimeric receptors GR/NER, GR/NUC and GR/PPAR. The GR/NER chimeric receptor was constructed as described for the GR/NUC and GR/PPAR hybrid receptors (Schmidt et al., 1992; Boie et al). The cDNA sequences coding for amino acids Arg^155 and Glu^156 of the NER receptor were converted to the Xho I restriction site, that was later used for the ligation to the GR cDNA sequences that coded for the DNA binding domain. Thus, converting amino acid residues Arg^155 and Glu^156 of NER receptor to amino acid residues Ser^155 and His^156.

Data set [3] deals with GR/PPAR. Briefly: Ligand dependent transcription assay, GR/PPAR chimeric receptor with MMTV-luciferase reporter in COS cells. It counts as cell-based, African green monkey. How it is done:
as §1, §2
The ligand transcription assay mediated by GR/PPAR in COS cells was performed as described in Example 4. The cells were treated with TOFA and Cerulenin at 0.1, 1, 10 and 100 μM.

Data set [4] has as its system Haloperidol Induced Catalepsy. As to the kind of experiment: Haloperidol (dopamine D2 antagonist) induced catalepsy, bar method. It counts as in vivo. To be noted: rats; TOFA 0.4 mg/kg S.C. 24 h before Haloperidol 0.1 mg/kg.
In a further data set the test system is promoter of SV40. Briefly: Luciferase expression from reporter gene under control of the SV40 promoter. It counts as cell-based.
The test system of the next data set is PC12 cells. As to the kind of experiment: Neurite differentiation of PC12 cells. It counts as cell-based. To be noted: TOFA alone, without NGF (data not shown). How it is done: To further study the influence of TOFA on the nervous system, we tested the effect of TOFA on the differentiation of PC12 cells. PC12 cells were plated at a density of approximately 100-200/mm^2 on collagen coated plates or dishes in RPMI medium supplemented with 10% horse serum, 5% fetal calf serum, […] streptomycin, 50 U/mL penicillin in a water saturated atmosphere of 95% air and 5% CO2, at 37° C. overnight. […]
At different time points during the treatment, cells were photographed or fixed with 10% formalin. Morphology was examined after four days of treatment with TOFA or vehicle (DMSO). The number of cells bearing neurites and average length of neurites were determined with the aid of the Bioquant imaging system. […] However, as depicted in Table 6 below, NGF alone induced a 15% increase in the number of cells bearing neurites and these outgrowths reached a mean length of 20 μm . Treatment with NGF and TOFA increased the percentage of cells bearing neurites to 78%. Maximal neurite generation is observed at a concentration of 10 μM TOFA.
[…] At least eighty cells from eight wells were analyzed in each group. The results are shown as the mean±SEM. ^a p<0.01, versus vehicle by Dunnetts test.

Data set [5] relates to MMTV-luciferase reporter gene. Briefly: Luciferase expression in cells transfected only with the MMTV-luciferase reporter gene. It counts as cell-based.
Protocol: (§3) Transient transfection of COS and CV1 cells was performed as described (Schmidt 1992). Cells were plated (1.5×10^5 in 1 mL) into 12 well dishes in phenol red-free medium supplemented with activated charcoal treated fetal calf serum. The next day 0.12 mL of DNA 10 μg/ml (5 μg receptor DNA and 5 μg reporter plasmid), as a calcium phosphate precipitate, was added to the cells. Ligands were added to the cells 30 minutes after transfection. The next day (18 hours), the cells were washed and fresh ligands added. Twenty-four hours later, cell extracts were prepared and assayed for luciferase enzyme activity using the luciferase assay system (Promega Madison, Wis.). Each transfection was performed in triplicate and the luciferase activity of each sample measured in duplicate using the AutoClinilumat (Berthold Nashua, New Hampshire).

“Also recorded” adds a separate entry of the source.

Protocol for GR/NER: as §3

For `CN1CCc2cc(Cl)c(O)cc2C(c2ccccc2)C1` (centres unmarked) [SCH-23390, 8-chloro-2,3,4,5-tetrahydro-3-methyl-5-phenyl-1H-3-benzazepin-7-ol hemimaleate], the “Catalepsy Duration” value in data set [1] came to 3.1 ± 1.3 s. Also, the “Fold of Stimulation GR/NER, Dopamine (50 μM)” value in the data set with GR/NER (SCH-23390 0.1 μM with dopamine 50 μM) amounted to 0.59 ± 0.06 fold; in the data set with GR/NER (SCH-23390 1.0 μM with dopamine 50 μM), 0.55 ± 0.09 fold; in the data set on GR/NER (SCH-23390 10.0 μM with dopamine 50 μM), 0.83 ± 0.12 fold; in the data set with GR/NER (SCH-23390 100 μM with dopamine 50 μM), 2.61 ± 0.86 fold. The “Fold of Stimulation GR/NER, Control” value is listed as 1.32 ± 0.15 fold in the data set with GR/NER (SCH-23390 0.1 μM), 1.22 ± 0.11 fold in the data set on GR/NER (SCH-23390 1.0 μM), 1.64 ± 0.38 fold with GR/NER (SCH-23390 10.0 μM) and 2.38 ± 0.19 fold in the data set on GR/NER (SCH-23390 100 μM).

Regarding `CCCCCCCC/C=C\CCCCCCCC(=O)O` [Oleic Acid, oleic acid], the “Fold of Stimulation GR/PPAR” value in the data set on GR/PPAR [2] (50 μM) was determined as 2.87 ± 0.2 fold; with GR/PPAR [2] (300 μM), 14.69 ± 0.06 fold. Moreover, the “Fold of stimulation GR/NUC” value in the data set with GR/NUC (150 μM) came to 3.42 ± 0.28 fold.

As for `C/C=C/C/C=C/CCC(=O)[C@H]1O[C@H]1C(N)=O` [Cerulenin], the “Fold of Stimulation GR/PPAR” value in the data set on GR/PPAR [3] (0.1 μM, Table 2, 1440 min) was found to be 1.03 ± 0.12 fold; in the data set with GR/PPAR [3] (1.0 μM, Table 2), 1.13 ± 0.05 fold; in the data set with GR/PPAR [3] (10.0 μM, Table 2, 1440 min) it was 0.58 ± 0.11 fold.

Regarding `CCCCCCCCCCCCCCOc1ccc(C(=O)O)o1` [TOFA, 5-(tetradecyloxy)-2-furan carboxylic acid], the “effect of TOFA pretreatment on Haloperidol-induced catalepsy” value in data set [4] is recorded as “did not significantly affect; also recorded: unaffected”. For the same compound, the “stimulation of luciferase expression, reporter under control of the promoter of SV40” value with promoter of SV40 was “did not stimulate”. Further, the neurite outgrowth result in the data set on PC12 cells is on record as “did not induce neurite outgrowth”. Further, the “Fold of Stimulation GR/PPAR” value with GR/PPAR [3] (0.1 μM, Table 2, 1440 min) is 1.04 ± 0.14 fold; with GR/PPAR [3] (1.0 μM, Table 2) it was 2.38 ± 0.16 fold; in the data set with GR/PPAR [3] (10.0 μM, Table 2, 1440 min) it was 4.43 ± 0.23 fold; with GR/PPAR [3] (100 μM, Table 2, 1440 min) it was 4.10 ± 0.52 fold; with GR/PPAR [2] (2 μM) it was 2.89 ± 0.13 fold; in the data set with GR/PPAR [2] (10 μM), 4.08 ± 0.10 fold. In addition, in the data set on GR/PPAR [2] (20 μM), the “Fold of Stimulation GR/PPAR” value was 5.75 ± 0.14 fold. In addition, the “stimulation of luciferase expression, MMTV-luciferase reporter gene only” value in [5] is listed as “did not stimulate”. For the same compound, the “Fold of stimulation GR/NUC” value with GR/NUC (2 μM) was found to be 1.95 ± 0.14 fold; with GR/NUC (10 μM), 2.85 ± 0.20 fold; in the data set on GR/NUC (50 μM), 3.19 ± 0.20 fold.
